Assay results: ChEMBL document CHEMBL5726069, “1-(3-aminopropyl) substituted cyclic amine compounds, preparation method therefor, and pharmaceutical compositions and uses thereof” (2019)

Target: C-C chemokine receptor type 5 (Homo sapiens, UniProt P51681)
Assay: Calcium Flux Inhibition Experiment: 1. HEK293 cells which can stably express CCR5 were inoculated in a 96-well plate and incubated overnight.2. The medium in each well into which cells were innoculated was removed and 40 μl/well of freshly prepared dye was added. The plate was placed in a 37° C. incubator and incubated for 40 minutes at constant temperature.3. The medicament to be determined was diluted with calcium buffer to eight concentration gradients, which is 1×10−4 M, 1×10−5 M, 1×10−6 M, 1×10−7 M, 1×10−8 M, 1×10−9 M, 1×10−10 M, and 1×10−11 M, respectively, and homogeneously mixed.4. The dye was removed. Freshly prepared calcium buffer was used to wash for one time, 50 μl of calcium buffer was added.5. FlexStation II was used for detection. 25 μl of calcium buffer containing the medicament to be determined was added automatically from the 15th second. The fluorescence value at 525 nm was read ultimately.
Type: cell-based

Chain of C-C chemokine receptor type 5 (P51681 whole entry): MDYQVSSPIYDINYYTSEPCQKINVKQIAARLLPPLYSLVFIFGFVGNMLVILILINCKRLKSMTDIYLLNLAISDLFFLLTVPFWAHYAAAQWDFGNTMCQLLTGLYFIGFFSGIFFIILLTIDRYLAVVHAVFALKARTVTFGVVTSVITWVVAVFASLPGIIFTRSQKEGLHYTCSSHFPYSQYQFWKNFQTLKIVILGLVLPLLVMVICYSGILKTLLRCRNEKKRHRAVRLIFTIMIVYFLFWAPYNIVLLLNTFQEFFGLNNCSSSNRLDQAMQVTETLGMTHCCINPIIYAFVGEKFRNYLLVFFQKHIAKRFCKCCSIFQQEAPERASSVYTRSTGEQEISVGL

SMILES | IC50 [nM]
CC(=O)Nc1ccc([C@H](CCN2C3CCC2CC(n2c(C)nnc2C(C)C)C3)NC(=O)C2CCC(F)(F)CC2)s1 (stereo partly drawn) | 8.23
CCc1ccc([C@H](CCN2C3CCC2CC(n2c(C)nnc2C(C)C)C3)NC(=O)C2CCC(F)(F)CC2)s1 (stereo partly drawn) | 4.63
Cc1ccc([C@H](CCN2C3CCC2CC(n2c(C)nnc2C(C)C)C3)NC(=O)C2CCC(F)(F)CC2)s1 (stereo partly drawn) | 7.28
Cc1nnc(C(C)C)n1C1CC2CCC(C1)N2CC[C@H](NC(=O)C1CCC(F)(F)CC1)c1ccc(F)s1 (stereo partly drawn) | 9.33
Cc1nnc(C(C)C)n1C1CC2CCC(C1)N2CC[C@H](NC(=O)C1CCC(F)(F)CC1)c1ccc(C#N)s1 (stereo partly drawn) | 9.45
CC(=O)Oc1ccc([C@H](CCN2C3CCC2CC(n2c(C)nnc2C(C)C)C3)NC(=O)C2CCCCC2)s1 (stereo partly drawn) | 1.38
Cc1nnc(C(C)C)n1C1CC2CCC(C1)N2CC[C@H](NC(=O)C1CCC(F)(F)CC1)c1nccs1 (stereo partly drawn) | 10.3
Cc1nnc(C(C)C)n1C1CC2CCC(C1)N2CC[C@H](NC(=O)C1CCCCC1)c1ccc(C(=O)N(C)C)s1 (stereo partly drawn) | 1.64
Cc1nnc(C(C)C)n1C1CC2CCC(C1)N2CC[C@H](NC(=O)C1CCC(F)(F)CC1)c1csc2ccccc12 (stereo partly drawn) | 11.4
CNC(=O)c1ccc([C@H](CCN2C3CCC2CC(n2c(C)nnc2C(C)C)C3)NC(=O)C2CCC(F)(F)CC2)s1 (stereo partly drawn) | 13.7
Cc1nnc(C(C)C)n1C1CC2CCC(C1)N2CCC(NC(=O)C1CCC(F)(F)CC1)c1cccs1 (stereo not drawn) | 1.95
Cc1ccc([C@H](CCN2C3CCC2CC(n2c(C)nnc2C(C)C)C3)NC(=O)CC#N)s1 (stereo partly drawn) | 8.29
Cc1nnc(C(C)C)n1C1CC2CCC(C1)N2CC[C@H](NC(=O)C1CCC(F)(F)CC1)c1ccc(Cl)s1 (stereo partly drawn) | 10.4
